This passage reports TGI and GI50 results from PubChem BioAssay (NCI).

SMILES strings stand for the structures. Values joined by “and” are separate entries in the source; they are usually repeats but may differ in a detail not shown here. Identical values can stand only once.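 All cell lines were grown in 96-well plates and treated with compound for 48 hours. GI50 marks 50% less growth. TGI is the concentration that stops growth completely.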

Test in all cases: growth of human tumour cells (NCI), 48 h
Assay [1] has as its system RPMI-8226 leukemia.
Assay [2] has as its system HT29 colon.
Assay [3] relates to SF-295 CNS.
Assay [4] relates to NCI-H522 lung.
In assay [5] the test system is A549 NSCLC.
Assay [6] deals with MALME-3M melanoma.
Assay [7] deals with MDA-MB-435.
The test system of assay [8] is CCRF-CEM leukemia.
The subject of assay [9] is SK-OV-3 ovarian.
Assay [10] deals with SNB-75 CNS.

As for `COn1cc(CO)c2ccccc21`, the TGI is over 100 µM in [1]; over 100 µM in assay [2]; over 100 µM in assay [3]; 72.9 µM in assay [4]; over 100 µM in assay [5]; over 100 µM in assay [6]. Moreover, the TGI in assay [7], in [8], in assay [9] and in [10] was over 100 µM throughout.
On to `COCC(=O)OC1CCn2c1nc1c2C(=O)C(C)=C(NC(C)=O)C1=O` (centres undefined), for which the TGI was 4.76 µM and 9.5 µM in [1]; 29.5 µM in assay [2]; 31.7 µM in assay [3]; 14.3 µM in assay [4]; 47.8 µM in [5]; 4.94 µM and 6.11 µM in [6]. Also, the TGI is 3.69 µM and 3.42 µM in assay [7]; 1.58 µM and 8.85 µM in assay [8]; 34.3 µM in assay [9]; 14.8 µM in [10]. Further, the GI50 in assay [4] was 5.52 µM; in assay [6], 2.37 µM; in assay [7], 2.17 µM; in assay [8], 0.262 µM.
For the molecule `CC(C)(C)c1ccc2c(c1)OCc1n[nH]c(n1)COc1cc(C(C)(C)C)ccc1OCCOCCO2`, the TGI in assay [1] is 8.41 µM; in assay [2], 10.3 µM; in assay [3] it was 12.5 µM; in assay [4], 9.07 µM; in assay [5], 14.3 µM; in assay [6], 7.62 µM. The TGI stood at 11.5 µM in [7], 26.8 µM in [8], 15.3 µM in assay [9] and 19.2 µM in assay [10].
`O=S1(=O)c2ccccc2NC(=S)N1c1ccccc1`: the TGI in [1] is over 100 µM; in assay [2] it was over 100 µM; in [3], over 100 µM; in assay [4], over 73.3 µM; in assay [5], over 100 µM; in assay [6], over 100 µM. The TGI in assay [7] is over 100 µM; in [8], over 100 µM; in assay [9] it was over 100 µM; in [10], 48.3 µM.
On to `Cc1ccc2c(c1)C(=O)/C(=C\c1ccc(Cl)cc1)CCS2(=O)=O`, for which the TGI was 4.81 µM in [1]; 6.54 µM in assay [2]; 17.9 µM in [3]; 3.28 µM in assay [4]; over 58.8 µM in [5]; 6.42 µM in [6]. The TGI is 23.3 µM in [7], over 20.8 µM in assay [8], 22.4 µM in [9] and 18.4 µM in assay [10].
With `O=C(O)c1cc2ccccc2c(S(=O)(=O)O)c1O`, the TGI in [1], in assay [2], in [3], in [4], in [5] and in assay [6] was over 100 µM in each case. Further, the TGI in [7], in assay [8], in assay [9] and in assay [10] was over 100 µM each time.
`CCOC(=O)Cc1nn2c(=O)cc(C)nc2s1`: the TGI in assay [1], in [2], in assay [3], in assay [4], in assay [5] and in assay [6] was over 100 µM in each case. In addition, the TGI in [7], in assay [8], in [9] and in [10] was over 100 µM throughout.
For the molecule `CC(C)Cc1c(C#N)c(C#N)c(N)n1Cc1ccccc1`, the TGI in [1], in [2], in assay [3], in [4], in [5] and in [6] was over 100 µM in each case. Besides, the TGI in assay [7], in [8], in assay [9] and in assay [10] was over 100 µM in each case.
In the case of `Clc1cccc(C2ON=C(c3ccccc3)N2C23CC4CC(CC(C4)C2)C3)c1Cl` (centres undefined), the TGI in [1], in assay [2], in assay [3], in [4], in assay [5] and in assay [6] was over 10 µM throughout. Further, the TGI in assay [7], in assay [8], in [9] and in assay [10] was over 10 µM each time.
As to `COc1ccc(N2C(=O)C3c4[nH]c5ccccc5c4C4C(C)CCCC4C3C2=O)cc1` (centres undefined), the TGI was over 100 µM in assay [1]; over 100 µM in [2]; over 100 µM in assay [3]; over 56.3 µM in assay [4]; over 100 µM in assay [5]; 52.6 µM in assay [6]. Besides, the TGI in assay [7] is over 30.2 µM; in [8], over 100 µM; in [9], over 100 µM; in assay [10], over 77 µM.
Take `O=C(/C=C1\C[C@H]2C=Nc3ccccc3C(=O)N2C1)NCCCCCNC(=O)/C=C1\C[C@H]2C=Nc3ccccc3C(=O)N2C1`: the TGI is over 72.7 µM in [1]; 27.4 µM in assay [2]; 33 µM in assay [3]; 2.51 µM in [4]; 54.6 µM in assay [5]; 7.09 µM in assay [6]. For the same molecule, the TGI was 19 µM in [7], 12.7 µM in assay [8], 30.3 µM in [9] and 28.4 µM in assay [10].
Take `O=c1c(Cc2ccccc2)c(-c2ccccc2)[nH]n1C1=NCCN1`: the TGI in assay [1] is over 100 µM; in assay [2], 57 µM; in assay [3] it was over 100 µM; in assay [4], over 100 µM; in assay [5] it was over 100 µM; in assay [6] it was over 100 µM. The TGI in [7], in assay [8], in assay [9] and in [10] was over 100 µM throughout.
Take `CC1=NC(C)(C)N(O)C1(C)C`: the TGI in assay [1], in assay [2], in assay [3], in [4], in assay [5] and in assay [6] was over 100 µM throughout. Besides, the TGI in assay [7], in [8], in [9] and in [10] was over 100 µM in each case.
Consider `COc1ccc(CN2C(=O)C(=O)N(C)C2=O)c2ccccc12`, for which the TGI in [1], in assay [2], in [3], in assay [4], in assay [5] and in assay [6] was over 10 µM throughout. In addition, the TGI in assay [7], in [8], in assay [9] and in assay [10] was over 10 µM each time.
Turning to `COC(=O)C1=C(C)N2[C@H](C(=O)O)CS[C@@]2(C)[C@H](C(=O)OC)[C@H]1c1cccc([N+](=O)[O-])c1`, the TGI in assay [1], in [2], in assay [3], in assay [4], in assay [5] and in assay [6] was over 100 µM each time. In addition, the TGI in assay [7], in assay [8], in [9] and in assay [10] was over 100 µM in each case.
As for `O=C1NN=C(c2c[nH]c3ccccc23)CC1NCc1ccccc1` (centres undefined), the TGI in assay [1], in assay [2], in assay [3], in [4], in assay [5] and in assay [6] was over 100 µM throughout. In addition, the TGI in assay [7], in assay [8], in assay [9] and in assay [10] was over 100 µM in each case.
